# Test results taken from patent US11684701B2, “Operating room coating applicator and method” (Ethicon, Inc., priority 2018, dated 2023).
# Legend:
# [1] = system: microorganism; settings: French Percuflex catheters dip-coated, sterilized with ethylene oxide, stored; for thirty days after being coated; cited from earlier work
# [2] = system: Staphylococcus aureus; assay: Zone of inhibition test of gentamicin-coated stainless steel coupon on agar plate; format: cell-based; settings: 4% gentamicin solution in water nebulized onto 0.5" polished 316 stainless steel coupon; incubated at 38° C. for 24 hours; initial S. aureus inoculum 10^5 bacteria per cubic centimeter
# Source text: A filter paper disk, or other object, impregnated with a particular antimicrobial agent is applied to an agar medium that is inoculated with the test organism. Where the anti-microbial agent diffuses through the medium, and as long as the concentration of the antimicrobial agent is above the MIC, none of the susceptible organism will grow on or around the disk for some distance. This distance is called a zone of inhibition. […] The diameter of the zone of inhibition is inversely proportional to the MIC.
# A 4% gentamicin solution in water was applied to a 0.5″ polished 316 stainless steel coupon using the device described in FIGS. 3A and 3B according to the cycle described in FIG. 10. The stainless steel coupon was then incubated at 38° C. for 24 hours in an agar plate containing an initial Staphylococcus aureus inoculum of 10^5 bacteria per cubic centimeter of solution.
Molecule,antimicrobial properties (zone of inhibition) [1],protective zone of inhibition formed around the coupon [2]
"Oc1cc(Cl)ccc1Oc1ccc(Cl)cc1Cl [2,4,4′-tricloro-2-hydroxydiphenyl ether]",produced a zone of inhibition,–
gentamicin,–,approximately 8 mm
